Measured values published in patent publication US10316035B2, “Triazolopyridine inhibitors of myeloperoxidase” (BRISTOL-MYERS SQUIBB COMPANY, priority 2015, dated 2019).

How the values were obtained:
Assay type in all cases: biochemical
[1] = target: T1, EPX (eosinophil peroxidase) (Homo sapiens, UniProt P11678); assay: EPX bromination assay
T1 construct: purchased Lee Biosolutions 342-60
T1 sequence (P11678 140-715): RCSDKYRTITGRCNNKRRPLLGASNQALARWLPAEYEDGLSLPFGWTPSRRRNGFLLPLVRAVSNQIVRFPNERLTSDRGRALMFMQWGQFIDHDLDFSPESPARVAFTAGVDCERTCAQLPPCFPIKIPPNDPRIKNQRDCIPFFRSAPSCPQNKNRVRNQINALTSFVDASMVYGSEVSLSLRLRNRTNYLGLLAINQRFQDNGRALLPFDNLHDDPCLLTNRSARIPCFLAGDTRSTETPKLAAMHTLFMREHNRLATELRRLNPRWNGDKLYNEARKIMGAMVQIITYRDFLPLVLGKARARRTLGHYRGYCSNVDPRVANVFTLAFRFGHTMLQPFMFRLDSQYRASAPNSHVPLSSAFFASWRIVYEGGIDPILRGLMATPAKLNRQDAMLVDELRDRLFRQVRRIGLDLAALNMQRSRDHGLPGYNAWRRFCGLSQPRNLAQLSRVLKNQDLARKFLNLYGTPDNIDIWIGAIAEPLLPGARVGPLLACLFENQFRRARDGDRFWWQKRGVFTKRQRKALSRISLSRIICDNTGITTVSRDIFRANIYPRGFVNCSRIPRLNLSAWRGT
Protocol: (§1) [formula] where A=minimal Y value (activity level of inhibited sample), B=maximal Y value (activity level of uninhibited sample), C=Log IC50, D=Hill Slope, x=concentration of inhibitor. EPX Bromination Assay
EPX bromination activity was measured in 100 mM KPi (pH 7.4) by monitoring the H2O2 catalyzed formation of 3-bromo tyrosine from tyrosine and potassium bromide. A 50 μl mixture of 0.6 μM EPX (Lee Biosolutions Cat#342-60) was added to 100 nL inhibitor in 100% DMSO in a 384 well REMP plate. Enzyme and compound were preincubated for ten minutes at room temperature.
After the ten minute preincubation of enzyme and inhibitor, 25 μL of a mixture containing 400 μM tyrosine and 1200 μM potassium bromide was added to the plate containing enzyme and inhibitor, followed by the addition of 25 μl of 20 μM H2O2. The reaction was allowed to proceed for 15 minutes, at which time it was quenched with 10 μL of 20% TCA. The final concentrations of all components were 0.3 μM EPX, 100 μM tyrosine, […], 5 μM H2O2, 0.1% DMSO, 2.0% TCA.
IC50 values were determined by determining the peak areas of 3-bromotyrosine present at the end of the 15 minute reaction and fitting the data to:
[formula] where A=minimal Y value (activity level of inhibited sample), B=maximal Y value (activity level of uninhibited sample), C=Log IC50, D=Hill Slope, x=concentration of inhibitor.
Reversed-phase analysis was performed on a Waters Acquity Ultra Performance LC system using an Acquity UPLC BEH C18 […], 2.1×50 mm analytical column. The column was maintained at 60° C. Samples were eluted using a gradient of 0%-100% B over 2.5 minutes, followed by equilibration with 100% A for 1 minute where A consisted of 0.1% TFA and B consisted of 90% MeOH/0.1% TFA at a flow rate of 0.6 mL/min. The retention time of 3-bromo tyrosine was 1.22 min.

myeloperoxidase (MPO) [2] = target: T2, myeloperoxidase (MPO) (Homo sapiens, UniProt P05164); assay: MPO peroxidation assay (Amplex Red assay)
T2 sequence (P05164 49-745): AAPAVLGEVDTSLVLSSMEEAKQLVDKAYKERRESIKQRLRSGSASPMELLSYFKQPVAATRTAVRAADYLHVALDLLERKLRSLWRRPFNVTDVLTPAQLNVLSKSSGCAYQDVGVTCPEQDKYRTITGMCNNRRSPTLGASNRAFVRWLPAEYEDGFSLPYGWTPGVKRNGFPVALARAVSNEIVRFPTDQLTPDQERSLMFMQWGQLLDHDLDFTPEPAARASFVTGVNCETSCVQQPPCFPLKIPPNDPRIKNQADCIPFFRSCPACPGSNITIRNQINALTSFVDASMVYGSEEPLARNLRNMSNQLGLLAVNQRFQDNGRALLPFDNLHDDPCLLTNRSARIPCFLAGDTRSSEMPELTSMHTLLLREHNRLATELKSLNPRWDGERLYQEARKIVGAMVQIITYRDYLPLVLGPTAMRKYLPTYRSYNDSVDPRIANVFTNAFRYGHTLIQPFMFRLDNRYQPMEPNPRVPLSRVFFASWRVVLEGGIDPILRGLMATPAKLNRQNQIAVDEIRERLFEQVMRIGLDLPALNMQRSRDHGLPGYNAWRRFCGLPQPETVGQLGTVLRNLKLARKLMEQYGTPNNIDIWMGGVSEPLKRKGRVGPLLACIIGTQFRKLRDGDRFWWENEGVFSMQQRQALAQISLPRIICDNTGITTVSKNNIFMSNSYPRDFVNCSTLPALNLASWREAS
Summary of the method: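 MPO (200 pM) with 40 nM H2O2 was preincubated 10 min at room temperature with inhibitor in 100 mM KPi pH 7.4. A mix of Amplex Red (200 μM) and H2O2 (10 mM) was then added and resorufin fluorescence read kinetically for 15 min. Slopes over 180–540 s gave % inhibition and IC50 via a four-parameter Hill fit.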

myeloperoxidase (MPO) [3] = target: T2, myeloperoxidase (MPO); assay: MPO chlorination assay (APF assay)
Protocol: [formula] where A=minimal Y value (activity level of inhibited sample), B=maximal Y value (activity level of uninhibited sample), C=Log IC50, D=Hill Slope, x=concentration of inhibitor. MPO Chlorination Assay (APF Assay)
MPO chlorination activity was measured in 100 mM KPi (pH 7.4) by utilizing the non-fluorescent reagent Aminophenyl fluorescein (APF, Invitrogen catalog #A36003). APF is cleaved by (—OCl) to yield the fluorescent compound fluorescein. Reactions were carried out in 50 μL total volume by adding a 25 μL mixture of 200 pM myeloperoxidase and 120 mM NaCl to 100 nL inhibitor in 100% DMSO in a 384 well, non-binding surface clear bottom plate (CORNING® #3655). Enzyme, inhibitor, and chloride were preincubated for ten minutes at room temperature.
After the ten minute preincubation, 25 μL of an APF mixture containing […], 120 mM NaCl and 10 μM H2O2 was added to the plate using the internal dispensing system of a Hammatsu FDSS 6000. Kinetic determinations were carried out immediately on the FDSS 6000 (3 minute kinetic read, 1 read every second, ex: 485 nm, em: 535 nm). IC50 values for inhibitors were calculated by taking the slope of the linear portion of the kinetic measurement (20 seconds to ˜80-120 secs).
IC50 values were calculated by determining the slope of the linear portion of the kinetic trace ([…]), and using that calculated slope to determine % inhibition occurring at each concentration of inhibitor using the following equation:
as §1

[4] = MPO peroxidation, potency range class, read-out: Amplex Red IC50
[5] = MPO chlorination, potency range class, read-out: APF IC50

SMILES | IC50 [1] | IC50 (myeloperoxidase (MPO) [2]; [4]) | IC50 (myeloperoxidase (MPO) [3]; [5]) | IC50 (myeloperoxidase (MPO) [3]) | IC50 (myeloperoxidase (MPO) [2])
Nc1cc(OCc2cccc(OCc3ccccc3)c2)c2nn[nH]c2n1 [Example 2, 7-(3-(Benzyloxy)benzyloxy)-3H-[1,2,3]triazolo[4,5-b]pyridin-5-amine] | 0.08 µM | 0.001 to 0.1 µM |  |  | 
Nc1cc(OCc2cccc(OC3CC3)c2)c2nn[nH]c2n1 [Example 6, 7-(3-Cyclopropoxybenzyloxy)-3H-[1,2,3]triazolo[4,5-b]pyridin-5-amine] | 0.01 µM | 0.001 to 0.1 µM |  |  | 
Nc1cc(OCc2cccc(-c3ncccn3)c2)c2nn[nH]c2n1 [Example 8, 7-(3-(Pyrimidin-2-yl)benzyloxy)-3H-[1,2,3]triazolo[4,5-b]pyridin-5-amine] | 0.04 µM | 0.001 to 0.1 µM |  |  | 
CS(=O)(=O)c1ccc(Cl)cc1COc1cc(N)nc2[nH]nnc12 [Example 50, 7-(5-Chloro-2-(methylsulfonyl)benzyloxy)-3H-[1,2,3]triazolo[4,5-b]pyridin-5-amine] |  | 0.001 to 0.1 µM | 0.101 to 0.999 µM |  | 
Nc1cc(OCC2CCCc3ccccc32)c2nn[nH]c2n1 (stereo not shown) [Example 52, 7-((1,2,3,4-Tetrahydronaphthalen-1-yl)methoxy)-3H-[1,2,3]triazolo[4,5-b]pyridin-5-amine] |  | 0.101 to 0.999 µM | 1 to 10 µM |  | 
COc1ccc(Cl)cc1COc1cc(N)nc2[nH]nnc12 [Example 57, 7-(5-Chloro-2-methoxybenzyloxy)-3H-[1,2,3]triazolo[4,5-b]pyridin-5-amine] |  | 0.001 to 0.1 µM | 0.001 to 0.1 µM |  | 
Nc1cc(OCc2cc(Br)ccc2F)c2nn[nH]c2n1 [Example 61, 7-(5-Bromo-2-fluorobenzyloxy)-3H-[1,2,3]triazolo[4,5-b]pyridin-5-amine] |  | 0.001 to 0.1 µM | 0.001 to 0.1 µM |  | 
CC1CCCC(C)C1COc1cc(N)nc2[nH]nnc12 (stereo not shown) [Example 133, 7-((2,6-Dimethylcyclohexyl)methoxy)-3H-[1,2,3]triazolo[4,5-b]pyridin-5-amine] |  | 0.001 to 0.1 µM | 0.101 to 0.999 µM |  | 
CC(Oc1cc(N)nc2[nH]nnc12)c1cccc(F)c1 (stereo not shown) [Example 139, 7-(1-(3-Fluorophenyl)ethoxy)-3H-[1,2,3]triazolo[4,5-b]pyridin-5-amine] |  | 0.001 to 0.1 µM | 0.101 to 0.999 µM |  | 
Nc1cc(OCc2cc(C(=O)N3CCC(Cc4ccccc4)C3)ccc2Cl)c2nn[nH]c2n1 (stereo not shown) [Example 177, (3-((5-amino-3H-[1,2,3]triazolo [4,5-b]pyridin-7-yloxy)methyl)-4-chlorophenyl)(3-benzylpyrrolidin-1-yl)methanone] |  | 0.101 to 0.999 µM | 1 to 10 µM |  | 
Nc1cc(OCc2cc(S(F)(F)(F)(F)F)ccc2F)c2nn[nH]c2n1 [Example 226, 7-(5-Pentafluorosulfanyl-2-fluorobenzyloxy)-3H-[1,2,3]triazolo[4,5-b]pyridin-5-amine] |  | 0.001 to 0.1 µM | 0.101 to 0.999 µM |  | 
Nc1cc(OCc2c(Cl)cccc2Cl)c2nn[nH]c2n1 [Example 234, 7-((2,6-Dichlorobenzyl)oxy)-3H-[1,2,3]triazolo[4,5-b]pyridin-5-amine] |  |  |  | 0.001 to 0.1 µM | 0.001 to 0.1 µM
COc1cc(Br)ccc1COc1cc(N)nc2[nH]nnc12 [Example 242, 7-((4-Bromo-2-methoxybenzyl)oxy)-3H-[1,2,3]triazolo[4,5-b]pyridin-5-amine] |  | 0.001 to 0.1 µM | 0.001 to 0.1 µM |  | 

More lines, now with the values ahead:

IC50 [1] | IC50 (myeloperoxidase (MPO) [2]; [4]) | IC50 (myeloperoxidase (MPO) [3]; [5]) | IC50 (myeloperoxidase (MPO) [3]) | IC50 (myeloperoxidase (MPO) [2]) | SMILES
 | 1 to 10 µM | 1 to 10 µM |  |  | NC(=O)c1ccccc1COc1cc(N)nc2[nH]nnc12 [Example 254, 2-(((5-Amino-3H-[1,2,3]triazolo[4,5-b]pyridin-7-yl)oxy)methyl)benzamide]
 | 0.001 to 0.1 µM | 1 to 10 µM |  |  | Nc1cc(OCc2ccc(-n3cc(C(F)(F)F)cn3)cc2OC(F)(F)F)c2nn[nH]c2n1 [Example 271, 7-((2-(trifluoromethoxy)-4-(4-(trifluoromethyl)-1H-pyrazol-1-yl)benzyl)oxy)-3H-[1,2,3]triazolo[4,5-b]pyridin-5-amine]
 | 0.101 to 0.999 µM | 1 to 10 µM |  |  | Cc1nccn1-c1ccc(COc2cc(N)nc3[nH]nnc23)c(C#N)c1 [Example 277, 2-(((5-amino-3H-[1,2,3]triazolo[4,5-b]pyridin-7-yl)oxy)methyl)-5-(2-methyl-1H-imidazol-1-yl)benzonitrile]
 | 0.001 to 0.1 µM | 0.101 to 0.999 µM |  |  | CC(C)n1cc(-c2ccc(COc3cc(N)nc4[nH]nnc34)c(OC(F)(F)F)c2)cn1 [Example 305, 7-((4-(1-isopropyl-1H-pyrazol-4-yl)-2-(trifluoromethoxy)benzyl)oxy)-3H-[1,2,3] triazolo[4,5-b]pyridin-5-amine]
 | 0.001 to 0.1 µM | 0.101 to 0.999 µM |  |  | COc1ncc(-c2cc(F)c(COc3cc(N)nc4[nH]nnc34)c(F)c2)cn1 [Example 334, 7-((2,6-difluoro-4-(2-methoxypyrimidin-5-yl)benzyl)oxy)-3H-[1,2,3]triazolo[4,5-b] pyridin-5-amine]
 | 0.001 to 0.1 µM | 0.001 to 0.1 µM |  |  | Nc1cc(OCc2c(F)cc(-c3ccc(N4CCNCC4)nc3)cc2F)c2nn[nH]c2n1 [Example 336, 7-((2,6-difluoro-4-(6-(piperazin-1-yl)pyridin-3-yl)benzyl)oxy)-3H-[1,2,3]triazolo[4,5-b] pyridin-5-amine]
 | 0.101 to 0.999 µM | 1 to 10 µM |  |  | Nc1cc(OCc2c(F)ccc(-c3cncc(C(=O)N4CCOCC4)c3)c2Cl)c2nn[nH]c2n1 [Example 345, (5-(3-(((5-amino-3H-[1,2,3]triazolo[4,5-b]pyridin-7-yl)oxy)methyl)-2-chloro-4-fluorophenyl)pyridin-3-yl)(morpholine) methanone]
